In ChEMBL document CHEMBL4800730 (2021):
Activity calls are given as the source filed them. No cut-off for these calls is given here.

Assays:
[1] = NanoBRET assay (AKT3); details: Homo sapiens
[2] = target: Tyrosine-protein kinase ABL1 (Homo sapiens) (UniProt P00519); assay: ABL1 SelectScreen Kinase panel (LifeTechnologies); details: Compound concentration 1.0 uM
[3] = target: Cytoplasmic tyrosine-protein kinase BMX (Homo sapiens) (UniProt P51813); assay: BMX SelectScreen Kinase panel (LifeTechnologies); details: Compound concentration 1.0 uM
[4] = target: Calcium/calmodulin-dependent protein kinase type 1D (Homo sapiens) (UniProt Q8IU85); assay: CAMK1D (CaMKI delta) SelectScreen Kinase panel (LifeTechnologies); details: Compound concentration 1.0 uM
[5] = target: Cyclin-dependent kinase 1/cyclin B (Homo sapiens) (UniProt P06493+P14635+Q8WWL7+O95067); assay: CDK1/cyclin B SelectScreen Kinase panel (LifeTechnologies); type: protein-complex assay; details: Compound concentration 1.0 uM
[6] = target: Epidermal growth factor receptor (Homo sapiens) (UniProt P00533); assay: EGFR (ErbB1) SelectScreen Kinase panel (LifeTechnologies); details: Compound concentration 1.0 uM
[7] = target: Receptor tyrosine-protein kinase erbB-2 (Homo sapiens) (UniProt P04626); assay: ERBB2 (HER2) SelectScreen Kinase panel (LifeTechnologies); details: Compound concentration 1.0 uM
[8] = target: Receptor-type tyrosine-protein kinase FLT3 (Homo sapiens) (UniProt P36888); assay: FLT3 SelectScreen Kinase panel (LifeTechnologies); details: Compound concentration 1.0 uM
[9] = target: G protein-coupled receptor kinase 4 (Homo sapiens) (UniProt P32298); assay: GRK4 SelectScreen Kinase panel (LifeTechnologies); details: Compound concentration 1.0 uM
[10] = target: Rhodopsin kinase GRK7 (Homo sapiens) (UniProt Q8WTQ7); assay: GRK7 SelectScreen Kinase panel (LifeTechnologies); details: Compound concentration 1.0 uM
[11] = target: Glycogen synthase kinase-3 beta (Homo sapiens) (UniProt P49841); assay: GSK3B (GSK3 beta) SelectScreen Kinase panel (LifeTechnologies); details: Compound concentration 1.0 uM
[12] = target: Tyrosine-protein kinase ITK/TSK (Homo sapiens) (UniProt Q08881); assay: ITK SelectScreen Kinase panel (LifeTechnologies); details: Compound concentration 1.0 uM
[13] = target: Serine/threonine-protein kinase MARK1 (Homo sapiens) (UniProt Q9P0L2); assay: MARK1 (MARK) SelectScreen Kinase panel (LifeTechnologies); details: Compound concentration 1.0 uM
[14] = target: Serine/threonine-protein kinase MARK2 (Homo sapiens) (UniProt Q7KZI7); assay: MARK2 SelectScreen Kinase panel (LifeTechnologies); details: Compound concentration 1.0 uM
[15] = target: Serine/threonine-protein kinase PAK 1 (Homo sapiens) (UniProt Q13153); assay: PAK1 SelectScreen Kinase panel (LifeTechnologies); details: Compound concentration 1.0 uM
[16] = target: PAS domain-containing serine/threonine-protein kinase (Homo sapiens) (UniProt Q96RG2); assay: PASK SelectScreen Kinase panel (LifeTechnologies); details: Compound concentration 1.0 uM
[17] = target: Serine/threonine-protein kinase pim-1 (Homo sapiens) (UniProt P11309); assay: PIM1 SelectScreen Kinase panel (LifeTechnologies); details: Compound concentration 1.0 uM
[18] = target: Serine/threonine-protein kinase PLK1 (Homo sapiens) (UniProt P53350); assay: PLK1 SelectScreen Kinase panel (LifeTechnologies); details: Compound concentration 1.0 uM
[19] = target: Protein kinase C delta type (Homo sapiens) (UniProt Q05655); assay: PRKCD (PKC delta) SelectScreen Kinase panel (LifeTechnologies); details: Compound concentration 1.0 uM
[20] = target: Protein kinase C epsilon type (Homo sapiens) (UniProt Q02156); assay: PRKCE (PKC epsilon) SelectScreen Kinase panel (LifeTechnologies); details: Compound concentration 1.0 uM
[21] = target: Serine/threonine-protein kinase D3 (Homo sapiens) (UniProt O94806); assay: PRKCN (PKD3) SelectScreen Kinase panel (LifeTechnologies); details: Compound concentration 1.0 uM
[22] = target: Protein kinase C theta type (Homo sapiens) (UniProt Q04759); assay: PRKCQ (PKC theta) SelectScreen Kinase panel (LifeTechnologies); details: Compound concentration 1.0 uM
[23] = target: Serine/threonine-protein kinase D2 (Homo sapiens) (UniProt Q9BZL6); assay: PRKD2 (PKD2) SelectScreen Kinase panel (LifeTechnologies); details: Compound concentration 1.0 uM
[24] = target: Ribosomal protein S6 kinase alpha-2 (Homo sapiens) (UniProt Q15349); assay: RPS6KA2 (RSK3) SelectScreen Kinase panel (LifeTechnologies); details: Compound concentration 1.0 uM
[25] = target: Ribosomal protein S6 kinase alpha-3 (Homo sapiens) (UniProt P51812); assay: RPS6KA3 (RSK2) SelectScreen Kinase panel (LifeTechnologies); details: Compound concentration 1.0 uM
[26] = target: Ribosomal protein S6 kinase alpha-6 (Homo sapiens) (UniProt Q9UK32); assay: RPS6KA6 (RSK4) SelectScreen Kinase panel (LifeTechnologies); details: Compound concentration 1.0 uM
[27] = target: Serine/threonine-protein kinase Sgk3 (Homo sapiens) (UniProt Q96BR1); assay: SGKL (SGK3) SelectScreen Kinase panel (LifeTechnologies); details: Compound concentration 1.0 uM
[28] = target: Proto-oncogene tyrosine-protein kinase Src (Homo sapiens) (UniProt P12931); assay: SRC SelectScreen Kinase panel (LifeTechnologies); details: Compound concentration 1.0 uM
[29] = target: Serine/threonine-protein kinase 3 (Homo sapiens) (UniProt Q13188); assay: STK3 (MST2) SelectScreen Kinase panel (LifeTechnologies); details: Compound concentration 1.0 uM
[30] = target: Serine/threonine-protein kinase 4 (Homo sapiens) (UniProt Q13043); assay: STK4 (MST1) SelectScreen Kinase panel (LifeTechnologies); details: Compound concentration 1.0 uM
[31] = target: Angiopoietin-1 receptor (Homo sapiens) (UniProt Q02763); assay: TEK (Tie2) SelectScreen Kinase panel (LifeTechnologies); details: Compound concentration 1.0 uM
[32] = target: Tyrosine-protein kinase TXK (Homo sapiens) (UniProt P42681); assay: TXK SelectScreen Kinase panel (LifeTechnologies); details: Compound concentration 1.0 uM
[33] = target: 5-hydroxytryptamine receptor 1D (Homo sapiens) (UniProt P28221); details: Compound concentration 10.0 uM
[34] = target: D(1A) dopamine receptor (Homo sapiens) (UniProt P21728); details: Compound concentration 10.0 uM
[35] = target: D(2) dopamine receptor (Homo sapiens) (UniProt P14416); details: Compound concentration 10.0 uM
[36] = target: D(1B) dopamine receptor (Homo sapiens) (UniProt P21918); details: Compound concentration 10.0 uM
[37] = target: Sodium-dependent dopamine transporter (Homo sapiens, UniProt Q01959); details: Compound concentration 10.0 uM
[38] = target: Alpha-1A adrenergic receptor (Homo sapiens) (UniProt P35348); details: Compound concentration 10.0 uM
[39] = organism: Rattus norvegicus; details: Compound concentration 10.0 uM
[40] = target: Alpha-1D adrenergic receptor (Homo sapiens) (UniProt P25100); details: Compound concentration 10.0 uM
[41] = target: Sigma intracellular receptor 2 (Homo sapiens) (UniProt Q5BJF2); details: Compound concentration 10.0 uM
[42] = target: Ephrin type-B receptor 4 (Homo sapiens) (UniProt P54760); assay: EPHB4 SelectScreen Kinase panel (LifeTechnologies); details: Compound concentration 1.0 uM
[43] = target: 3-phosphoinositide-dependent protein kinase 1 (Homo sapiens) (UniProt O15530); assay: PDK1 Direct SelectScreen Kinase panel (LifeTechnologies); details: Compound concentration 1.0 uM
[44] = target: MAP kinase-interacting serine/threonine-protein kinase 1 (Homo sapiens) (UniProt Q9BUB5); assay: MKNK1 (MNK1) SelectScreen Kinase panel (LifeTechnologies); details: Compound concentration 1.0 uM

Chain of Serine/threonine-protein kinase Sgk3 (Homo sapiens) (Q96BR1 whole entry): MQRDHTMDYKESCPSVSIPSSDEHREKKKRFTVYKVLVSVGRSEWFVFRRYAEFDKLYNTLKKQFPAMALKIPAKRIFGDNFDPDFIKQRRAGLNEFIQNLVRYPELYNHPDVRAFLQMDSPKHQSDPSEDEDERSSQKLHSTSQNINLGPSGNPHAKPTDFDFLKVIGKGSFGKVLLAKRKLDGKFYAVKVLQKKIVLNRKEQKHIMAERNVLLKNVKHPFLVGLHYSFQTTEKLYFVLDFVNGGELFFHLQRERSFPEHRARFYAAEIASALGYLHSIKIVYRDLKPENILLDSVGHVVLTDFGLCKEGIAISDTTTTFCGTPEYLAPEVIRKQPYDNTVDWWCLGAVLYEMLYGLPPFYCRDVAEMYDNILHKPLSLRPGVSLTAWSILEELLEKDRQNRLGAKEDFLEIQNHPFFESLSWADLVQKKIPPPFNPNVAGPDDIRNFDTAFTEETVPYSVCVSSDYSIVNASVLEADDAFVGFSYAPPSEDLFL
Chain of Sodium-dependent dopamine transporter (Q01959 whole entry): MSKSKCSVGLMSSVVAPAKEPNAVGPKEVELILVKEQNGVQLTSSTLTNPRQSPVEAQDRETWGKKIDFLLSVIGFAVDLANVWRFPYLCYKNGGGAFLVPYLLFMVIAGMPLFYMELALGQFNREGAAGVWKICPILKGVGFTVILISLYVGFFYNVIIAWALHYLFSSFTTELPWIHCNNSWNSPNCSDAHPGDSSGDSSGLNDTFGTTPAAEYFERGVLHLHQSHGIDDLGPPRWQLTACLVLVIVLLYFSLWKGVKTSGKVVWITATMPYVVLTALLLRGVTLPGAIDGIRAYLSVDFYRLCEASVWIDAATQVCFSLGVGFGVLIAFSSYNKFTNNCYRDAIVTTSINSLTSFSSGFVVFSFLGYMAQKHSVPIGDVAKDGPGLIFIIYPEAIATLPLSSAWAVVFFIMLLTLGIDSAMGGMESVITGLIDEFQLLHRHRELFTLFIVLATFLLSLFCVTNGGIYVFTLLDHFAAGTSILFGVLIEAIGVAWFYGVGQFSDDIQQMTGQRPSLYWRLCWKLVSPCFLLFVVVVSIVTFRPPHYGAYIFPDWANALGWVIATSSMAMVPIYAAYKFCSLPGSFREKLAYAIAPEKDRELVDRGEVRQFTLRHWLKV
Chain of Serine/threonine-protein kinase MARK1 (Homo sapiens) (Q9P0L2 whole entry, looked up): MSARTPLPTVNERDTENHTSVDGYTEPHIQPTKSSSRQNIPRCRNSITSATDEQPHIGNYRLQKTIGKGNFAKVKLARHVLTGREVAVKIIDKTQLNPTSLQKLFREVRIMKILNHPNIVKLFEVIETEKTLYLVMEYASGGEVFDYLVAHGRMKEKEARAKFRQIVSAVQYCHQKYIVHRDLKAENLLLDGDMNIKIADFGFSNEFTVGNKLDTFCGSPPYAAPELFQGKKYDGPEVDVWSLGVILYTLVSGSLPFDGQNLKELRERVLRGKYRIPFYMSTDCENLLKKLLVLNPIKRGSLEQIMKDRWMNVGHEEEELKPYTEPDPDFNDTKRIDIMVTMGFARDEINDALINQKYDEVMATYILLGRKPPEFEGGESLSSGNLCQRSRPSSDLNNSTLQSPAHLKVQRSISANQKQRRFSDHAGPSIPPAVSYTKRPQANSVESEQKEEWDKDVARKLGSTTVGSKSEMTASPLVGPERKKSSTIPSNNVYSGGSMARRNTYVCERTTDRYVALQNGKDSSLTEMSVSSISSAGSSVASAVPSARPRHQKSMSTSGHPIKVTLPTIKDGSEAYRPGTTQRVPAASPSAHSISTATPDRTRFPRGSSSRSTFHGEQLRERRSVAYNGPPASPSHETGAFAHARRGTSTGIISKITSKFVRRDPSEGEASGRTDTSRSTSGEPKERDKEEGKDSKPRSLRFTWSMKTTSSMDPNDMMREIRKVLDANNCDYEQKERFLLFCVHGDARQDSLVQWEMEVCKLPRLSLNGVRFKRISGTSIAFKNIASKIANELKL
Chain of Calcium/calmodulin-dependent protein kinase type 1D (Homo sapiens) (Q8IU85 whole entry, looked up): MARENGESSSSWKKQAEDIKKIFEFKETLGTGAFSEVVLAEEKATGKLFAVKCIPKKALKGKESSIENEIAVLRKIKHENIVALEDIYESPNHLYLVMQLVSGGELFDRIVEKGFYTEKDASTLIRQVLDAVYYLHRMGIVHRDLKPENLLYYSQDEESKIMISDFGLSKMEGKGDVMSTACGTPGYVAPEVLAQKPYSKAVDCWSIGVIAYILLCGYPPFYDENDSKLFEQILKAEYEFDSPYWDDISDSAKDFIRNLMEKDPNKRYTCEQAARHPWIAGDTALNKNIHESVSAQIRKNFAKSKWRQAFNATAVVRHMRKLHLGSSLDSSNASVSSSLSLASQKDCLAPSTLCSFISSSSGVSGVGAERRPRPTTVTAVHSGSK
Chain of Tyrosine-protein kinase ABL1 (Homo sapiens) (P00519 whole entry): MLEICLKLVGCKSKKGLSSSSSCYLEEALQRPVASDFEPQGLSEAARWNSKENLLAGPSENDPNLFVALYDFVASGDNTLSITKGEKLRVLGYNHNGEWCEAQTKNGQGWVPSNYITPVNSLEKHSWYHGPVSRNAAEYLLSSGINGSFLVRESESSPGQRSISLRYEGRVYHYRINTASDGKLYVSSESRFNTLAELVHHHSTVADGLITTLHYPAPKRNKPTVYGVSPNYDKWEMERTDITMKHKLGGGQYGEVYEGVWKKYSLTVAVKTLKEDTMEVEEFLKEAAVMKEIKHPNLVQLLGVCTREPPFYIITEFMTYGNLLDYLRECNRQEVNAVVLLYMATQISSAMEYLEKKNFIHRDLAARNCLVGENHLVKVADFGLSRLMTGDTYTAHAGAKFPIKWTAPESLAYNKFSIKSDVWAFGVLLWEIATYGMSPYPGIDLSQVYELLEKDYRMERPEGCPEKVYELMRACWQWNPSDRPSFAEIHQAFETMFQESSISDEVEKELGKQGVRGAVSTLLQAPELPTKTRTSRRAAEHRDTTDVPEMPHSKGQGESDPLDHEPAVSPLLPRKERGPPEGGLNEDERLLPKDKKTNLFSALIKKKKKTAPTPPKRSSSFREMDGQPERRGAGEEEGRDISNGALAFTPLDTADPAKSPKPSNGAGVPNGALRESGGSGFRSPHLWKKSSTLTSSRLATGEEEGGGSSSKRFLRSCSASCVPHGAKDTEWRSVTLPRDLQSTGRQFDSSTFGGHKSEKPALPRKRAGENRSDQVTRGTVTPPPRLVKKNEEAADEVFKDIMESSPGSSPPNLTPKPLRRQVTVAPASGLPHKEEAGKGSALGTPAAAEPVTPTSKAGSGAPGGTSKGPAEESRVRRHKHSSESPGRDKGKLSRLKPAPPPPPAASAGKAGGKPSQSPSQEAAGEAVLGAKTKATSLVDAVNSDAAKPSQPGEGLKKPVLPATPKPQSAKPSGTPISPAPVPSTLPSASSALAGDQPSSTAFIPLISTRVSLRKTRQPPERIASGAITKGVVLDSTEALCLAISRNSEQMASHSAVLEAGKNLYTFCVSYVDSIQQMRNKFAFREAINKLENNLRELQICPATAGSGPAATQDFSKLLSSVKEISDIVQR
Chain of Receptor-type tyrosine-protein kinase FLT3 (Homo sapiens) (P36888 whole entry): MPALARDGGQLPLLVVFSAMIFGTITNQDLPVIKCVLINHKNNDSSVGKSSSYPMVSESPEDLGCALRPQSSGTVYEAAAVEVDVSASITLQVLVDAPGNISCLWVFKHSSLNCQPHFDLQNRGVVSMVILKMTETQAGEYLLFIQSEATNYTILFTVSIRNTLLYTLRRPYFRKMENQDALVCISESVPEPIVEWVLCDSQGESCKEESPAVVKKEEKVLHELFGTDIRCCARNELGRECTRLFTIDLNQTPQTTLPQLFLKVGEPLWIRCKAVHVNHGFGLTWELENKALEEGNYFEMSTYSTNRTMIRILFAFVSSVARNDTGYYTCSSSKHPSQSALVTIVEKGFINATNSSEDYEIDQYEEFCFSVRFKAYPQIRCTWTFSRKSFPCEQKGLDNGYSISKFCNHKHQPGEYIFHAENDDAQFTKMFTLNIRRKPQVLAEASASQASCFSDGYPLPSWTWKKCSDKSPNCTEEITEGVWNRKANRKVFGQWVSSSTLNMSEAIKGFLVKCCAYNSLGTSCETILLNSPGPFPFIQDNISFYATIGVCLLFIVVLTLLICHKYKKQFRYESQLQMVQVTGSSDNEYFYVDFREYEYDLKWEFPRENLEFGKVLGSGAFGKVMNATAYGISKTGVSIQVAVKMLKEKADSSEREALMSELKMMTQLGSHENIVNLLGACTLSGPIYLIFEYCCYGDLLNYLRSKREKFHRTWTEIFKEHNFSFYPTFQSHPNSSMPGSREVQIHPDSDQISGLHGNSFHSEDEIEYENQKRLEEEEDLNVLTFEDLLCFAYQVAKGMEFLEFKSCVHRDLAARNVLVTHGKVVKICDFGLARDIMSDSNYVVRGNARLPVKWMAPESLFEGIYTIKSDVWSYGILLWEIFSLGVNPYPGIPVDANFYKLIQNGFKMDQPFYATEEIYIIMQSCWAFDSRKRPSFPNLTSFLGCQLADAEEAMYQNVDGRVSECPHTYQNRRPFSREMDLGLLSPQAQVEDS
Chain of G protein-coupled receptor kinase 4 (Homo sapiens) (P32298 whole entry, looked up): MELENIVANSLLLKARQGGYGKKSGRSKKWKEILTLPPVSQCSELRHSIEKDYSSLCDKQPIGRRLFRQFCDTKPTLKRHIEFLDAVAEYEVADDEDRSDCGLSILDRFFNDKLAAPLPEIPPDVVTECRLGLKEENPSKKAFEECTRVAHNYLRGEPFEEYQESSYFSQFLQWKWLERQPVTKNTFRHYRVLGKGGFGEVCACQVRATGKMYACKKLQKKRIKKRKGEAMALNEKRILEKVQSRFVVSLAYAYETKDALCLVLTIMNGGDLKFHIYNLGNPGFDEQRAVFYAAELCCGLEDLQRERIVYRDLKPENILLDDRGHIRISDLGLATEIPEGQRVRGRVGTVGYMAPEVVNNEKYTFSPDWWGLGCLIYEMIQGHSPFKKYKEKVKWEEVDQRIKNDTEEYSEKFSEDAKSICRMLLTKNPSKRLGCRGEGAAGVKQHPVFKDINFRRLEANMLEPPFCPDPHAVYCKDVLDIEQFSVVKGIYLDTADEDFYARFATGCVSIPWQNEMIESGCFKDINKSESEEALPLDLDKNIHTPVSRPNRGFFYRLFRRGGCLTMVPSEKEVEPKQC

## C=CC(=O)Nc1ccc2[nH]c(=O)n(C3CCN(Cc4ccc(-c5nc6cc[nH]c(=O)c6cc5-c5ccccc5)cc4)CC3)c2c1 [Borussertib]
[1]
  EC50: 29 nM (active)
  IC50: 4300 nM (not active)
[2]
  inhibition: 2%
[3]
  inhibition: 7%
[4]
  inhibition: 9%
[5]
  inhibition: 3%
[6]
  inhibition: 2%
[7]
  inhibition: -3%
[8]
  inhibition: 17%
[9]
  inhibition: 8%
[10]
  inhibition: -6%
[11]
  inhibition: 20%
[12]
  inhibition: -1%
[13]
  inhibition: -7%
[14]
  inhibition: -2%
[15]
  inhibition: -9%
[16]
  inhibition: 15%
[17]
  inhibition: 0%
[18]
  inhibition: -3%
[19]
  inhibition: -8%
[20]
  inhibition: -1%
[21]
  inhibition: 14%
[22]
  inhibition: 35%
[23]
  inhibition: 5%
[24]
  inhibition: 14%
[25]
  inhibition: 21%
[26]
  inhibition: 14%
[27]
  inhibition: 2%
[28]
  inhibition: 10%
[29]
  inhibition: 1%
[30]
  inhibition: -1%
[31]
  inhibition: 13%
[32]
  inhibition: 8%
[33]
  inhibition: 12.1%
[34]
  inhibition: 19.2%
[35]
  inhibition: 22.7%
[36]
  inhibition: 28.8%
[37]
  inhibition: 59.7%
[38]
  inhibition: 72.2%
[39]
  inhibition: 72.3%
[40]
  inhibition: 22.1%
[41]
  inhibition: 24.8%
[42]
  inhibition: 7%
[43]
  inhibition: -4%
[44]
  inhibition: 8%
